# Experimental data taken from BindingDB's records for doi:10.1016/S0960-894X(96)00249-1 (1996).
# Target: T1, Gastrin/cholecystokinin type B receptor (Homo sapiens, UniProt P32239)
# T1 sequence (P32239 whole entry): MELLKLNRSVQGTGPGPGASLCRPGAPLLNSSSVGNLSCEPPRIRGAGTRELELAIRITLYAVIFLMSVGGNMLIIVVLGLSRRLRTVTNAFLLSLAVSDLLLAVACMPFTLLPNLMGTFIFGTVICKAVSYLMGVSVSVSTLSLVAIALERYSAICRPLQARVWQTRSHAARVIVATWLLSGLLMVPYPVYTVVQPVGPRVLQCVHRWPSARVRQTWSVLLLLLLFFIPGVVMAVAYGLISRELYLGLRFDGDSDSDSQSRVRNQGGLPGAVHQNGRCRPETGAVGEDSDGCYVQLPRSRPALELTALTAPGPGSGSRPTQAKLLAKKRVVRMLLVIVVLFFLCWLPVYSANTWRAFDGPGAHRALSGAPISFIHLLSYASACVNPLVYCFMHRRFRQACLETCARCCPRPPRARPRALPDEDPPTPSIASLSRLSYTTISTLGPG
# Assay: ChEBML_71518
row,SMILES,IC50
1,"CN1C(=O)[C@H](NC(=O)Nc2cccc(COC(=O)NCNC(=O)CC(=O)NCCSCc3csc(CC(=N)N)n3)c2)N=C(c2ccccc2)c2ccccc21 [[(2-{2-[2-(2,2-Diamino-vinyl)-thiazol-4-ylmethylsulfanyl]-ethylcarbamoyl}-acetylamino)-methyl]-carbamic acid 3-[3-((R)-1-methyl-2-oxo-5-phenyl-2,3-dihydro-1H-benzo[e][1,4]diazepin-3-yl)-ureido]-benzyl ester]",4 nM

# Target: not listed separately
# Assay: Inhibitory activity against gastrin receptor.
row,SMILES,IC50
1,"CN1C(=O)[C@H](NC(=O)Nc2cccc(COC(=O)NCCNC(=O)CC(=O)NCCCOc3cccc(CN4CCCCC4)c3)c2)N=C(c2ccccc2)c2ccccc21 [(2-{2-[3-(3-Piperidin-1-ylmethyl-phenoxy)-propylcarbamoyl]-acetylamino}-ethyl)-carbamic acid 3-[3-((R)-1-methyl-2-oxo-5-phenyl-2,3-dihydro-1H-benzo[e][1,4]diazepin-3-yl)-ureido]-benzyl ester]",19 nM
2,"CN1C(=O)[C@H](NC(=O)Nc2cccc(CCOC(=O)NCCCNCCSCc3csc(CC(=N)N)n3)c2)N=C(c2ccccc2)c2ccccc21 [(3-{2-[2-(2,2-Diamino-vinyl)-thiazol-4-ylmethylsulfanyl]-ethylamino}-propyl)-carbamic acid 2-{3-[3-((R)-1-methyl-2-oxo-5-phenyl-2,3-dihydro-1H-benzo[e][1,4]diazepin-3-yl)-ureido]-phenyl}-ethyl ester]",37 nM
3,"Cc1cccc(NC(=O)N[C@@H]2N=C(c3ccccc3)c3ccccc3N(CCOC(=O)NCCCC(=O)NCCSCc3csc(CC(=N)N)n3)C2=O)c1 [(3-{2-[2-(2,2-Diamino-vinyl)-thiazol-4-ylmethylsulfanyl]-ethylcarbamoyl}-propyl)-carbamic acid 2-[(R)-2-oxo-5-phenyl-3-(3-m-tolyl-ureido)-2,3-dihydro-benzo[e][1,4]diazepin-1-yl]-ethyl ester]",17 nM
4,"Cc1cccc(NC(=O)N[C@@H]2N=C(c3cccc(OC(=O)NCCCC(=O)NCCSCc4csc(CC(=N)N)n4)c3)c3ccccc3N(C)C2=O)c1 [(3-{2-[2-(2,2-Diamino-vinyl)-thiazol-4-ylmethylsulfanyl]-ethylcarbamoyl}-propyl)-carbamic acid 3-[(R)-1-methyl-2-oxo-3-(3-m-tolyl-ureido)-2,3-dihydro-1H-benzo[e][1,4]diazepin-5-yl]-phenyl ester]",> 1000 nM
5,"CN1C(=O)[C@H](NC(=O)Nc2cccc(COC(=O)NCCN3CCN(C(=O)CNCCCOc4cccc(CN5CCCCC5)c4)CC3)c2)N=C(c2ccccc2)c2ccccc21 [[2-(4-{2-[3-(3-Piperidin-1-ylmethyl-phenoxy)-propylamino]-acetyl}-piperazin-1-yl)-ethyl]-carbamic acid 3-[3-((R)-1-methyl-2-oxo-5-phenyl-2,3-dihydro-1H-benzo[e][1,4]diazepin-3-yl)-ureido]-benzyl ester]",7 nM
6,"CN1C(=O)[C@H](NC(=O)Nc2cccc(COC(=O)NCCCN3CCN(C(=O)CNCCCOc4cccc(CN5CCCCC5)c4)CC3)c2)N=C(c2ccccc2)c2ccccc21 [[3-(4-{2-[3-(3-Piperidin-1-ylmethyl-phenoxy)-propylamino]-acetyl}-piperazin-1-yl)-propyl]-carbamic acid 3-[3-((R)-1-methyl-2-oxo-5-phenyl-2,3-dihydro-1H-benzo[e][1,4]diazepin-3-yl)-ureido]-benzyl ester]",9 nM
7,"CN1C(=O)[C@H](NC(=O)Nc2cccc(CCOC(=O)NCCC(=O)NCCCOc3cccc(CN4CCCCC4)c3)c2)N=C(c2ccccc2)c2ccccc21 [{2-[3-(3-Piperidin-1-ylmethyl-phenoxy)-propylcarbamoyl]-ethyl}-carbamic acid 2-{3-[3-((R)-1-methyl-2-oxo-5-phenyl-2,3-dihydro-1H-benzo[e][1,4]diazepin-3-yl)-ureido]-phenyl}-ethyl ester]",27 nM
8,"CN1C(=O)[C@H](NC(=O)Nc2cccc(COC(=O)NCCC(=O)NCCCOc3cccc(CN4CCCCC4)c3)c2)N=C(c2ccccc2)c2ccccc21 [{2-[3-(3-Piperidin-1-ylmethyl-phenoxy)-propylcarbamoyl]-ethyl}-carbamic acid 3-[3-((R)-1-methyl-2-oxo-5-phenyl-2,3-dihydro-1H-benzo[e][1,4]diazepin-3-yl)-ureido]-benzyl ester]",36 nM
9,"Cc1cccc(NC(=O)N[C@@H]2N=C(c3ccccc3)c3ccccc3N(CCOC(=O)NCCCC(=O)NCCCOc3cccc(CN4CCCCC4)c3)C2=O)c1 [{3-[3-(3-Piperidin-1-ylmethyl-phenoxy)-propylcarbamoyl]-propyl}-carbamic acid 2-[(R)-2-oxo-5-phenyl-3-(3-m-tolyl-ureido)-2,3-dihydro-benzo[e][1,4]diazepin-1-yl]-ethyl ester]",135 nM
10,"CN1C(=O)[C@H](NC(=O)Nc2cccc(CCOC(=O)NCCCC(=O)NCCCOc3cccc(CN4CCCCC4)c3)c2)N=C(c2ccccc2)c2ccccc21 [{3-[3-(3-Piperidin-1-ylmethyl-phenoxy)-propylcarbamoyl]-propyl}-carbamic acid 2-{3-[3-((R)-1-methyl-2-oxo-5-phenyl-2,3-dihydro-1H-benzo[e][1,4]diazepin-3-yl)-ureido]-phenyl}-ethyl ester]",23 nM
11,"CN1C(=O)[C@H](NC(=O)Nc2cccc(COC(=O)NCCCC(=O)NCCCOc3cccc(CN4CCCCC4)c3)c2)N=C(c2ccccc2)c2ccccc21 [{3-[3-(3-Piperidin-1-ylmethyl-phenoxy)-propylcarbamoyl]-propyl}-carbamic acid 3-[3-((R)-1-methyl-2-oxo-5-phenyl-2,3-dihydro-1H-benzo[e][1,4]diazepin-3-yl)-ureido]-benzyl ester]",26 nM
12,"Cc1cccc(NC(=O)N[C@@H]2N=C(c3cccc(OC(=O)NCCCC(=O)NCCCOc4cccc(CN5CCCCC5)c4)c3)c3ccccc3N(C)C2=O)c1 [{3-[3-(3-Piperidin-1-ylmethyl-phenoxy)-propylcarbamoyl]-propyl}-carbamic acid 3-[(R)-1-methyl-2-oxo-3-(3-m-tolyl-ureido)-2,3-dihydro-1H-benzo[e][1,4]diazepin-5-yl]-phenyl ester]",220 nM
13,"CN1C(=O)[C@H](NC(=O)Nc2cccc(COC(=O)NCC(=O)NCCCOc3cccc(CN4CCCCC4)c3)c2)N=C(c2ccccc2)c2ccccc21 [{[3-(3-Piperidin-1-ylmethyl-phenoxy)-propylcarbamoyl]-methyl}-carbamic acid 3-[3-((R)-1-methyl-2-oxo-5-phenyl-2,3-dihydro-1H-benzo[e][1,4]diazepin-3-yl)-ureido]-benzyl ester]",11 nM
